“Also recorded” adds a separate entry of the source. Like-named read-outs stand apart in the source and are kept apart here.
Assays:
Assay type in all cases: cell-based
[1] = target: T1, human μ-opioid receptor, OPRM (Homo sapiens, UniProt P35372); experiment: Dominant assay: cAMP assay with/without irreversible antagonist β-FNA, OPRM cell line; settings: for maximal response on decreasing receptor population (dominant tendency), in words: OPRM cell lines, β-FNA
T1 construct: host or cells: HEK-293 overexpressing β-arrestin2 fused to a β-galactosidase fragment
T1 sequence (P35372 whole entry, the tested form may be a part): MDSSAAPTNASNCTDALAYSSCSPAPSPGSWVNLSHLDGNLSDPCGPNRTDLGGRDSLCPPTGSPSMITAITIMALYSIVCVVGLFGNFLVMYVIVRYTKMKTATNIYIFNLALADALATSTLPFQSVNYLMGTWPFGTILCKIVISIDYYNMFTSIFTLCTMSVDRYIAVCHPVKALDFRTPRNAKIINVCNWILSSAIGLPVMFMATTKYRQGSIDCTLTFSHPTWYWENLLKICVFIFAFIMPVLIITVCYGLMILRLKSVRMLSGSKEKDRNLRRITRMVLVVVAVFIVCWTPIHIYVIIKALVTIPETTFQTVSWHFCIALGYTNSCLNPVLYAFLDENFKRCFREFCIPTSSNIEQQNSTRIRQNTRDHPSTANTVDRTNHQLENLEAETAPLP
Source text: (§1) To confirm the agonist's efficacy in a nature-like system, we need inactivation of target receptors on the cell membrane. Most cell lines have an abundant target receptor population (also known as spare receptors). Therefore, agonists have more opportunity to constitute agonist-receptor conformation. In this environment, not only full agonists but also partial agonists can reach maximal response.
(§2) If the partial agonist is selected as a full agonist, translational in vivo research will likely fail.
(§3) Non-competitive, irreversible antagonists can be applicable to judge the pharmacological character of agonists because they permanently decrease the receptor population in the cell line system. β-FNA or β-CNA is used as a non-competitive and irreversible antagonist for OPRM, OPRD. Before cAMP assay, cells were incubated with β-FNA or β-CNA for 40 minutes. Afterwards, the procedure is the same.
(§4) If a partial agonist compound acts as a full agonist due to receptor population (pseudo full agonist), it cannot sustain maximal response with reduced receptor population. However, a full agonist compound maintains their maximal response even though increased EC50.

[2] = target: T2, human δ-opioid receptor, OPRD (Homo sapiens, UniProt P41143); experiment: Dominant assay: cAMP assay with/without irreversible antagonist β-CNA, OPRD cell line; settings: for maximal response on decreasing receptor population (dominant tendency), in words: OPRD cell lines, β-CNA
T2 construct: host or cells: HEK-293 overexpressing β-arrestin2 fused to a β-galactosidase fragment
T2 sequence (P41143 whole entry, the tested form may be a part): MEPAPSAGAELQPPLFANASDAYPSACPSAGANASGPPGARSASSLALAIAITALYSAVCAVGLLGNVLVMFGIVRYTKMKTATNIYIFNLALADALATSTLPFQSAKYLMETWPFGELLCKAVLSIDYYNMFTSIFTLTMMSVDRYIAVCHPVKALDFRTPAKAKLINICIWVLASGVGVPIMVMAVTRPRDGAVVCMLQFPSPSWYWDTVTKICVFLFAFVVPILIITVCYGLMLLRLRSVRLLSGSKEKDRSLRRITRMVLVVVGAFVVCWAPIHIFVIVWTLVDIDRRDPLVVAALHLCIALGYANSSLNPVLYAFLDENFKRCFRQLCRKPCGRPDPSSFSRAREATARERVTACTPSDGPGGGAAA
Source text: as §1, §2, §3, §4

[3] = target: T1, human μ-opioid receptor, OPRM; experiment: PathHunter β-arrestin 2 assay, OPRM cell line; settings: for OPRM β-ARR2 Emax (%): Example 3, Tables 5-7; for β-arrestin pathway activation / bARR2 recruitment, in words: OPRM
Source text: (§5) Human embryonic kidney 293 (HEK-293) cells which transfected overexpress (3-arrestin2 fused β-galactosidase fragment were purchased from DiscoverX. Human OPRM1 gene (NM 000914.3, encoding human μ-opioid receptor, OPRM) and Human OPRD1 gene (NM 000911.3, encoding human δ-opioid receptor, OPRD) were fused to a pCMV-ProLink plasmid which contains complementary β-galactosidase fragment purchased from DiscoverX. To generate human OPRM1 or OPRD1 expression cell lines, HEK-293 cells were transfected to prepared plasmid and grown in DMEM medium with 10% fetal bovine serum, 150 μg/mL Hygromycin B and 500 μg/mL G418.
(§6) The PathHunter enzyme assay was performed to measure the agonist's capability of β-arrestin 2 pathway activation. When agonists bind to G protein-coupled receptor (GPCR), the receptor pathway is sequentially activated from G protein to β-arrestin 2 recruitment.
(§7) Because […] β-arrestin 2 and C-terminal of GPCR have a fragment of β-galactosidase, recruitment of β-arrestin 2 to GPCR forms the whole β-galactosidase. The functionality of the whole β-galactosidase is detected by chemiluminescence (FlexStation3, Molecular Devices).
(§8) cAMP and β-arrestin assays described above were conducted to decide whether candidate compounds were μ- and/or δ-opioid receptor bias agonists for the G-protein pathway. All assays produced the concentration-response curve, and the curve data was validated by a quality control factor named Z′ factor. Because half-maximal effect concentration (EC50) depends on the population of receptors, the maximal asymptote of the concentration curve was used. Efficacy data of candidates was normalized by comparison to reference agonists DAMGO and SNC80 for OPRM and OPRD.

[4] = target: T2, human δ-opioid receptor, OPRD; experiment: PathHunter β-arrestin 2 assay, OPRD cell line; settings: for β-arrestin pathway activation / bARR2 recruitment, in words: OPRD
Source text: as §5, §6, §7, §8

[5] = addition of β-CNA, Example 3, Tables 5-7, read-out: OPRD Gi β-CNA (+) EC50
[6] = addition of β-CNA, Example 3, Tables 5-7, read-out: OPRD Gi β-CNA (+) Emax (%)
[7] = addition of β-CNA, repeated dominant assay, Example 4, Tables 8-10, read-out: OPRD Gi β-CNA (+) EC50
[8] = addition of β-CNA, repeated dominant assay, Example 4, Tables 8-10, read-out: OPRD Gi β-CNA (+) Emax (%)
[9] = no addition of β-CNA, Example 3, Tables 5-7
[10] = no addition of β-CNA, Example 3, Tables 5-7, read-out: OPRD Gi β-CNA (−) EC50
[11] = no addition of β-CNA, repeated dominant assay, Example 4, Tables 8-10
[12] = no addition of β-CNA, repeated dominant assay, Example 4, Tables 8-10, read-out: OPRD Gi β-CNA (−) EC50
[13] = addition of β-FNA, Example 3, Tables 5-7, read-out: OPRM Gi β-FNA (+) EC50
[14] = addition of β-FNA, Example 3, Tables 5-7, read-out: OPRM Gi β-FNA (+) Emax (%)
[15] = addition of β-FNA, repeated dominant assay, Example 4, Tables 8-10, read-out: OPRM Gi β-FNA (+) EC50
[16] = addition of β-FNA, repeated dominant assay, Example 4, Tables 8-10, read-out: OPRM Gi β-FNA (+) Emax (%)
[17] = no addition of β-FNA, Example 3, Tables 5-7, read-out: OPRM Gi β-FNA (−) EC50
[18] = no addition of β-FNA, Example 3, Tables 5-7, read-out: OPRM Gi β-FNA (−) Emax (%)
[19] = no addition of β-FNA, repeated dominant assay, Example 4, Tables 8-10, read-out: OPRM Gi β-FNA (−) EC50
[20] = no addition of β-FNA, repeated dominant assay, Example 4, Tables 8-10, read-out: OPRM Gi β-FNA (−) Emax (%)
[21] = no addition of β-CNA, repeated dominant assay, Example 4, Tables 8-10, read-out: OPRD Gi β-CNA (−) Emax (%)
[22] = addition of β-CNA, Example 3, Tables 5-7
[23] = addition of β-CNA, repeated dominant assay, Example 4, Tables 8-10
[24] = addition of β-FNA, Example 3, Tables 5-7
[25] = addition of β-FNA, repeated dominant assay, Example 4, Tables 8-10
[26] = no addition of β-FNA, Example 3, Tables 5-7
[27] = no addition of β-FNA, repeated dominant assay, Example 4, Tables 8-10

Row | SMILES | maximal response on decreasing receptor population (dominant tendency), in words [1] | maximal response on decreasing receptor population (dominant tendency), in words [2] | OPRM β-ARR2 Emax (%) [3] | β-arrestin pathway activation / bARR2 recruitment, in words [3] | EC50 [2, 5] | EC50 [2, 7] | OPRD Gi β-CNA (−) Emax (%) [2, 9] | EC50 [2, 10] | OPRD Gi β-CNA (−) Emax (%) [2, 11] | EC50 [2, 12] | OPRD β-ARR2 Emax (%) ([4]; Example 3, Tables 5-7) | β-arrestin pathway activation / bARR2 recruitment, in words [4] | EC50 [1, 13] | Emax [1, 14] | EC50 [1, 15] | EC50 [1, 17] | EC50 [1, 19] | OPRD Gi β-CNA (+) Emax (%) [2, 22] | OPRD Gi β-CNA (+) Emax (%) [2, 23] | OPRM Gi β-FNA (+) Emax (%) [1, 25] | also measured
1 | C[C@@H](NC(=O)[C@@H](N)Cc1ccc(O)cc1)C(=O)NCC(=O)N(C)[C@@H](Cc1ccccc1)C(=O)NCCO [DAMGO, [D-Ala^2, NMe-Phe^4, Gly-ol^5]-enkephalin, reference compound] | full agonist |  |  |  |  |  |  |  |  |  |  |  |  |  |  |  |  |  |  |  | 
2 | C=CCN1C[C@H](C)N([C@H](c2ccc(C(=O)N(CC)CC)cc2)c2cccc(OC)c2)C[C@H]1C [SNC80, reference compound] |  | full agonist |  |  |  |  |  |  |  |  |  |  |  |  |  |  |  |  |  |  | completeness of concentration-response curve, in words ([2]; OPRD system): produced a full concentration-response curve
3 | Cc1ccccc1NC(=O)NCC(c1ccc2c(c1)CCO2)N(C)C (single isomer, unassigned) [Compound 8] |  |  | 5.4% | lower bARR2 recruitment as compared to morphine | 35.7 µM | 8.69 µM | 95.54% | 15 µM | 102.7% | 16.9 µM | 5.1% | lower bARR2 recruitment as compared to morphine | 14.2 µM | 43.2% | 7.78 µM | 0.734 µM | 0.219 µM |  |  |  | Emax [2, 6]: 42.7%; Emax [2, 8]: 42.7%; Emax [1, 16]: 77.5%; Emax [1, 18]: 84.7%; Emax [1, 20]: 91.6%
4 | CN1CCc2cc(C(CNC(=O)Nc3ccc(F)cc3)N(C)C)ccc21 (single isomer, unassigned) [Compound 6] | resistant to decreasing spare receptors; also recorded: showed efficacy dominance on both types of opioid receptors; also recorded: resistant to decreasing spare receptor-induced tendency; also recorded: maintained a higher maximal response as compared to compound 2 | resistant to decreasing spare receptors; also recorded: showed efficacy dominance on both types of opioid receptors; also recorded: resistant to decreasing spare receptor-induced tendency; also recorded: maintained a higher maximal response as compared to compound 2 | 8.5% | lower bARR2 recruitment as compared to morphine | 48.3 µM | 13.5 µM | 128.1% | 8.91 µM |  | 4.32 µM |  | lower bARR2 recruitment as compared to morphine | 2.48 µM | 77% | 8.49 µM | 0.519 µM | 1.86 µM |  |  |  | Emax [2, 6]: 119%; Emax [2, 8]: 81.4%; Emax [2, 21]: 102%; Emax ([4]; Example 3, Tables 5-7, read-out: OPRD β-ARR2 Emax (%)): 10.5%; Emax [1, 16]: 90.1%; Emax [1, 18]: 106%; Emax [1, 20]: 100%
5 | Cc1ccccc1NC(=O)NCC(c1ccc2c(c1)CCO2)N(C)C (single isomer, unassigned) [Compound 9] |  |  | 22.9% |  | 5.86 µM | 5.86 µM | 66.82% | 2.79 µM | 139% | 18.1 µM | 16.1% |  | 1.66 µM |  | 0.791 µM | 0.0733 µM | 0.0713 µM | 51.61% | 51.61% | 74.49% | OPRM Gi β-FNA (+) Emax (%) [1, 24]: 52.64%; OPRM Gi β-FNA (−) Emax (%) [1, 26]: 98.76%; OPRM Gi β-FNA (−) Emax (%) [1, 27]: 91.98%
6 | CN(C)C(CNC(=O)Cc1ccc2c(c1)OCCO2)c1ccccc1 (single isomer, unassigned) [Compound 5] | superior efficacy-dominant properties | superior efficacy-dominant properties | 23.1% |  | 6.1 µM | 8.79 µM | 111% | 6.67 µM | 100% | 7.33 µM | 5.7% |  | 2.45 µM |  | 4.07 µM | 0.292 µM | 1.65 µM | 79.38% | 65.27% | 77.98% | OPRM Gi β-FNA (+) Emax (%) [1, 24]: 21.91%; OPRM Gi β-FNA (−) Emax (%) [1, 26]: 102%; OPRM Gi β-FNA (−) Emax (%) [1, 27]: 101.9%
7 | CN1CCc2cc(C(CNC(=O)Nc3ccc(F)cc3)N(C)C)ccc21 (single isomer, unassigned) [Compound 7] | resistant to decreasing spare receptors; also recorded: showed efficacy dominance on both types of opioid receptors; also recorded: resistant to decreasing spare receptor-induced tendency; also recorded: maintained a higher maximal response as compared to compound 2 | resistant to decreasing spare receptors; also recorded: showed efficacy dominance on both types of opioid receptors; also recorded: resistant to decreasing spare receptor-induced tendency; also recorded: maintained a higher maximal response as compared to compound 2 | 22.0% |  | 4.9 µM | 3.44 µM | 98.3% | 0.517 µM | 100.2% | 1.05 µM | 6.4% |  | 0.728 µM |  | 6.95 µM | 0.0416 µM | 2.31 µM | 100.2% | 81.99% | 90.07% | OPRM Gi β-FNA (+) Emax (%) [1, 24]: 85.93%; OPRM Gi β-FNA (−) Emax (%) [1, 26]: 95.81%; OPRM Gi β-FNA (−) Emax (%) [1, 27]: 100.9%
8 | CN(C)C(CNC(=O)Cc1ccc2c(c1)OCCO2)c1ccccc1 (single isomer, unassigned) [Compound 4] | better efficacy than racemic compound 1 |  | 4.8% | lower bARR2 recruitment as compared to morphine |  | 10 µM | 20.59% |  |  | 8.65 µM | 2.8% | lower bARR2 recruitment as compared to morphine | 10.9 µM | 24.6% | 12 µM | 20 µM | 9.4 µM | 17.23% | 108.1% | 45.02% | Emax [2, 21]: 100%; Emax [1, 18]: 82.8%; Emax [1, 20]: 100%

— US20220204449A1, “BIASED AGONISTS OF OPIOID RECEPTORS” (ILDONG PHARMACEUTICAL CO., LTD., priority 2020, published 2022)
